Counter-ions that a name gives are not always drawn. Where a SMILES comes first, the peptide text is derived from it. The star is where a group is joined. Cbz = O=C(OCc1ccccc1)*

One test addresses T1, human A3AR (Homo sapiens, UniProt P0DMS8).
T1 construct: expressed in transfected cells
T1 sequence (P0DMS8 1-318): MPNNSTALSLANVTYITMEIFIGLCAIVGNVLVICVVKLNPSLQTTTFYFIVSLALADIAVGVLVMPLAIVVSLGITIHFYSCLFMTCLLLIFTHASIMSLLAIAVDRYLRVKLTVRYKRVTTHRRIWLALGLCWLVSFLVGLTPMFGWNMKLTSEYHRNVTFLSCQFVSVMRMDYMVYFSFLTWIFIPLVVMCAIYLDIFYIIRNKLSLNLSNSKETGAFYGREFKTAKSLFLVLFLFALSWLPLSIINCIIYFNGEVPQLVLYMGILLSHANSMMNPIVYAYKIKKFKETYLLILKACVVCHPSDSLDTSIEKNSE
Description: LOPAC library primary screen: single concentration (10 μM) inhibition of 25 nM CA200645 binding, PHERAstar FS.
Conditions: not given
Take `O=C(O)[C@@H]1CCN1` [L-azetidine-2-carboxylic acid]: the “% 25 nM CA200645 binding” value was determined as 100.7 ± 4.1%. Regarding `Cl.O=C(CCCCCN1CCN(c2ccccc2-c2ccccc2)CC1)NC1CCCc2ccccc21` (centres unmarked) [LP 12 hydrochloride hydrate], the “% 25 nM CA200645 binding” value is 93.7 ± 9.5%. Regarding `Cl.O=c1cc(N2CCOCC2)oc2c(-c3ccccc3)cccc12` [LY-294,002 hydrochloride], the “% 25 nM CA200645 binding” value was determined as 94.6 ± 11.0%. Turning to `CC(CCc1ccccc1)NCC(O)c1ccc(O)c(C(N)=O)c1` (centres unmarked) [Labetalol hydrochloride], the “% 25 nM CA200645 binding” value is given as 97.5 ± 13.9%. Same read-out and setting: for `Nc1nnc(-c2cccc(Cl)c2Cl)c(N)n1` [Lamotrigine] the value was 93.6 ± 9.2%; for `Cc1c(OCC(F)(F)F)ccnc1C[S+]([O-])c1nc2ccccc2[nH]1` (centres unmarked) [Lansoprazole], 100.3 ± 13.0%; for `Cc1oncc1C(=O)Nc1ccc(C(F)(F)F)cc1` [Leflunomide], 100.1 ± 5.3%. With `COC(=O)C1=C(C)NC(C)=C(C(=O)OC(C)(C)CN(C)CCC(c2ccccc2)c2ccccc2)C1c1cccc([N+](=O)[O-])c1.COC(=O)C1=C(C)NC(C)=C(C(=O)OC(C)(C)CN(C)CCC(c2ccccc2)c2ccccc2)C1c1cccc([N+](=O)[O-])c1.Cl.Cl.O` (centres unmarked) [Lercanidipine hydrochloride hemihydrate], the “% 25 nM CA200645 binding” value is given as 82.9 ± 16.7%.

For `C=CCN1CC[C@]23CCCC[C@H]2[C@H]1Cc1ccc(O)cc13` [Levallorphan tartrate], the “% 25 nM CA200645 binding” value is reported as 105.9 ± 7.3%. The same measure, in the same setting: for `CC[C@@H](C(N)=O)N1CCCC1=O` [Levetiracetam] the value was 102.2 ± 9.6%. On the same count and under the same terms, under `CC(=O)NC[C@H]1CN(c2ccc(N3CCOCC3)c(F)c2)C(=O)O1` [Linezolid] stands 100.5 ± 2.1%. As for `[Cl-].[Li+]` [Lithium Chloride], the “% 25 nM CA200645 binding” value came out at 99.9 ± 5.2%. Turning to `CCn1cc(C(=O)O)c(=O)c2cc(F)c(N3CCNC(C)C3)c(F)c21` (centres unmarked) [Lomefloxacin hydrochloride], the “% 25 nM CA200645 binding” value was found to be 96.9 ± 10.1%.

Consider `O=C(O)c1nn(Cc2ccc(Cl)cc2Cl)c2ccccc12` [Lonidamine], for which the “% 25 nM CA200645 binding” value was found to be 94.6 ± 7.2%. As to `CCOC(=O)N1CCC(=C2c3ccc(Cl)cc3CCc3cccnc32)CC1` [Loratadine], the “% 25 nM CA200645 binding” value is 85.0 ± 1.8%. As to `CN1CCN(C2=Nc3ccccc3Oc3ccc(Cl)cc32)CC1` [Loxapine succinate], the “% 25 nM CA200645 binding” value is recorded as 80.2 ± 12.7%. As to `O=C(O)/C(=C/c1c(C(=O)O)[nH]c2cc(Cl)cc(Cl)c12)c1ccccc1` [MDL 105,519], the “% 25 nM CA200645 binding” value is 101.6 ± 19.9%. Regarding `CC(C)[C@H](NC(=O)OCc1ccccc1)C(=O)N[C@H](C=O)Cc1ccccc1` [MDL 28170] (Cbz-Val-Phe-aldehyde), the “% 25 nM CA200645 binding” value is given as 96.0 ± 2.8%. Same read-out and setting: for `CC[N+](CC)(CC)CCOc1ccc(/C=C/c2ccccc2)cc1` [MG 624] the value was 106.9 ± 11.5%; for `C1CNCCN1.COc1cc(C(O)CO)ccc1O.COc1cc(C(O)CO)ccc1O` (centres unmarked) [MHPG piperazine], 95.1 ± 7.6%; for `COc1cc(C(O)CO)ccc1OS(=O)(=O)[O-].[K+]` (centres unmarked) [MHPG sulfate potassium], 102.8 ± 6.8%. Consider `CC(C)c1ccc2c(c1)c(SC(C)(C)C)c(CC(C)(C)C(=O)O)n2Cc1ccc(Cl)cc1` [MK-886], for which the “% 25 nM CA200645 binding” value is on record as 98.7 ± 12.2%. For `COc1cc(N)c(Cl)cc1C(=O)OCCN1CCCCC1` [ML 10302], the “% 25 nM CA200645 binding” value turned out to be 105.8 ± 6.4%. Regarding `O=[N+]([O-])/C=C/c1ccc2c(c1)OCO2` [MNS], the “% 25 nM CA200645 binding” value is recorded as 50.1 ± 14.8%. In the case of `CCCOC(=O)c1c(-c2ccccc2)nc(CC)c(C(=O)SCC)c1CCC` [MRS 1523, reference compound], the “% 25 nM CA200645 binding” value was 57.3 ± 10.9%. Consider `Cc1nc(N=Nc2ccc(C(=O)O)cc2)c(COP(=O)(O)O)c(C=O)c1O` [MRS 2159], for which the “% 25 nM CA200645 binding” value is 83.0 ± 11.6%. The same measure, in the same setting: for `CNc1ncnc2c1ncn2[C@H]1C[C@H](OP(=O)(O)O)[C@@H](COP(=O)(O)O)O1` [MRS 2179] the value was 108.4 ± 2.3%; for `CNCCCC12CCC(c3ccccc31)c1ccccc12` [Maprotiline hydrochloride], 93.0 ± 35.9%; for `C[N+](C)(C)CC#CCOC(=O)Nc1cccc(Cl)c1.[Cl-]` [McN-A-343], 93.8 ± 10.4%.

On to `CN(N=O)c1ccc(O)c(O)c1` [Me-3,4-dephostatin], for which the “% 25 nM CA200645 binding” value is given as 87.0 ± 11.0%. In the case of `CNC1(C)C2CCC(C2)C1(C)C` (centres unmarked) [Mecamylamine hydrochloride], the “% 25 nM CA200645 binding” value is 65.4 ± 10.0%. Take `Cc1ccc(Cl)c(Nc2ccccc2C(=O)O)c1Cl` [Meclofenamic acid sodium]: the “% 25 nM CA200645 binding” value was determined as 93.6 ± 9.6%. On to `COc1ccc2[nH]cc(CCNC(C)=O)c2c1` [Melatonin], for which the “% 25 nM CA200645 binding” value is 106.6 ± 11.6%.

For the compound `Cc1cnc(NC(=O)C2=C(O)c3ccccc3S(=O)(=O)N2C)s1` [Meloxicam sodium], the “% 25 nM CA200645 binding” value was 93.6 ± 6.8%. As for `CC12CC3CC(C)(C1)CC(N)(C3)C2` [Memantine hydrochloride], the “% 25 nM CA200645 binding” value turned out to be 109.9 ± 10.5%. Take `COc1ccc(CCn2nnnc2C2(c3ccc(C)cc3)CC2)cc1` [Mephetyl tetrazole]: the “% 25 nM CA200645 binding” value is given as 66.4 ± 18.5%.

In the case of `CC(C)NCC(O)c1cc(O)cc(O)c1.CC(C)NCC(O)c1cc(O)cc(O)c1.O=S(=O)(O)O` (centres unmarked) [Metaproterenol hemisulfate], the “% 25 nM CA200645 binding” value is reported as 102.0 ± 5.4%. Take `CN1C[C@H](CNC(=O)OCc2ccccc2)C[C@@H]2c3cccc4c3c(cn4C)C[C@H]21` [Metergoline]: the “% 25 nM CA200645 binding” value was 94.1 ± 8.5%.

Turning to `CN(Cc1cnc2nc(N)nc(N)c2n1)c1ccc(C(=O)N[C@@H](CCC(=O)O)C(=O)O)cc1.O` [Methotrexate hydrate], the “% 25 nM CA200645 binding” value is on record as 100.1 ± 8.9%. In the case of `COc1ccc(OC)c(C(O)C(C)N)c1` (centres unmarked) [Methoxamine hydrochloride], the “% 25 nM CA200645 binding” value came to 132.3 ± 57.0%. In the case of `CC[C@@H](CO)NC(=O)[C@@H]1C=C2c3cccc4[nH]cc(c34)C[C@H]2N(C)C1` [Methylergonovine maleate], the “% 25 nM CA200645 binding” value is given as 91.6 ± 8.0%. As to `CC[C@@H](CO)NC(=O)[C@@H]1C=C2c3cccc4c3c(cn4C)C[C@H]2N(C)C1` [Methysergide maleate], the “% 25 nM CA200645 binding” value is recorded as 92.3 ± 21.2%. On to `CCN(CC)CCNC(=O)c1cc(Cl)c(N)cc1OC.Cl` [Metoclopramide hydrochloride], for which the “% 25 nM CA200645 binding” value is 106.5 ± 2.9%. As to `Cc1ccccc1N1C(=O)c2cc(S(N)(=O)=O)c(Cl)cc2NC1C` (centres unmarked) [Metolazone], the “% 25 nM CA200645 binding” value is listed as 90.5 ± 39.1%. On to `Cc1cccc(C)c1OCC(C)N.Cl` (centres unmarked) [Mexiletene hydrochloride], for which the “% 25 nM CA200645 binding” value turned out to be 99.4 ± 6.9%. As to `CN1CCN2c3ccccc3Cc3ccccc3C2C1` (centres unmarked) [Mianserin hydrochloride], the “% 25 nM CA200645 binding” value was 92.0 ± 7.7%. Consider `COCC(=O)O[C@]1(CCN(C)CCCc2nc3ccccc3[nH]2)CCc2cc(F)ccc2[C@@H]1C(C)C` [Mibefradil dihydrochloride], for which the “% 25 nM CA200645 binding” value is given as 107.6 ± 26.6%.

Take `CC#C[C@]1(O)CC[C@H]2[C@@H]3CCC4=CC(=O)CCC4=C3[C@@H](c3ccc(N(C)C)cc3)C[C@@]21C` [Mifepristone]: the “% 25 nM CA200645 binding” value came to 83.5 ± 5.2%. For `Cc1[nH]c(=O)c(C#N)cc1-c1ccncc1` [Milrinone], the “% 25 nM CA200645 binding” value stood at 97.0 ± 4.9%.

Take `CN(C)c1ccc(O)c2c1C[C@H]1C[C@H]3[C@H](N(C)C)C(O)=C(C(N)=O)C(=O)[C@@]3(O)C(O)=C1C2=O` [Minocycline hydrochloride]: the “% 25 nM CA200645 binding” value came out at 101.7 ± 17.9%. For the compound `Nc1cc(N2CCCCC2)nc(N)[n+]1[O-]` [Minoxidil], the “% 25 nM CA200645 binding” value came out at 96.7 ± 6.2%. With `O=C1c2c(O)ccc(O)c2C(=O)c2c(NCCNCCO)ccc(NCCNCCO)c21` [Mitoxantrone], the “% 25 nM CA200645 binding” value is given as 88.5 ± 12.7%. For `NC(=O)c1ncn([C@@H]2O[C@H](CO)[C@@H](O)[C@H]2O)c1O` [Mizoribine], the “% 25 nM CA200645 binding” value stood at 101.6 ± 4.8%. With `O=C(NCCN1CCOCC1)c1ccc(Cl)cc1` [Moclobemide], the “% 25 nM CA200645 binding” value amounted to 97.8 ± 6.0%. Take `CCc1c(C)[nH]c2c1C(=O)C(CN1CCOCC1)CC2` (centres unmarked) [Molindone hydrochloride]: the “% 25 nM CA200645 binding” value is given as 91.2 ± 7.2%.

Staying with this test, now noted: % of 25 nM CA200645 binding in the presence of 10 μM compound, LOPAC full screen, A3AR CHO cells.
For the compound `CCCOC(=O)c1c(-c2ccccc2)nc(CC)c(C(=O)SCC)c1CCC` [MRS 1523, reference compound], the “% Total CA200645 binding” value stood at 58.3 ± 11.4%.

The test is the same for the next values; noted with them: % of control wells (1% DMSO and 25 nM CA200645); compounds at 10 µM; whole live cells expressing the A3AR; mean ± SD, three experiments in duplicate.
Turning to `CCCCCN(CCCCC)C(=O)C(CCC(=O)O)NC(=O)c1ccc(Cl)c(Cl)c1` (centres unmarked) [Lorglumide sodium], the “% 25 nM CA200645 binding” value was 99.4 ± 5.5%. With `Cc1ccccc1/C=C/C1=NCCN1` [Metrazoline oxalate], the “% 25 nM CA200645 binding” value amounted to 97.1 ± 2.0%.

Staying with this test, now noted: compounds tested at 10 µM; % of control wells (1% DMSO and 25 nM CA200645); whole live cells expressing the A3AR; mean ± SD, three experiments in duplicate.
Take `O=C1N(c2ccccc2)c2ccccc2C1(Cc1ccncc1)Cc1ccncc1` [Linopirdine]: the “% 25 nM CA200645 binding” value was 105.3 ± 3.6%.

`CCCCN(CCCC)CC(O)c1cc(Cl)cc2c1-c1ccc(Cl)cc1/C2=C/c1ccc(Cl)cc1` (centres unmarked) [Lumefantrine]: the “% 25 nM CA200645 binding” value worked out at 94.4 ± 10.9%. On to `CSc1ccc2c(c1)C(N1CCN(C)CC1)Cc1ccccc1S2` (centres unmarked) [Methiothepin mesylate], for which the “% 25 nM CA200645 binding” value is 112.2 ± 9.4%.

As to `CC[C@H](C)C(=O)O[C@H]1CCC=C2C=C[C@H](C)[C@H](CC[C@@H]3C[C@@H](O)CC(=O)O3)[C@H]21` [Mevastatin], the “% 25 nM CA200645 binding” value came out at 107.1 ± 10.0%.

These data come from paper PMC5733478, “A Non-imaging High Throughput Approach to Chemical Library Screening at the Unmodified Adenosine-A3 Receptor in Living Cells” (Frontiers in Pharmacology, 2017).
